Test results as given in patent US20100041089A1, “IMPROVED METHOD FOR DETECTING CHEMICAL […]” (priority 2006, published 2010).

Test system: yeast genes (expressed mRNA)
Experiment: DNA chip measurement of expressed mRNA of yeast genes after culture with a toxic chemical substance
Assay type: cell-based, Saccharomyces cerevisiae S288C
In short: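 Fluorescence ratio, treated over untreated, read by chip scanner; ratio of two or more counted significant. Cells: S288C yeast, YPD, 25° C, chemical added at log phase for 2 h at growth-inhibiting, sublethal level. Cy3/Cy5-labeled cDNA from oligo-dT-purified mRNA.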

N#Cc1c(Cl)c(Cl)c(Cl)c(C#N)c1Cl [(9), 2,4,5,6-Tetrachloro-1,3-benzenedicarbonitrile]
The level of expressed mRNA in the presence of chemical substance/The level of expressed mRNA in the absence of chemical substance (yeast gene YMR316W, cultured two hours with substance): 2.1 | The level of expressed mRNA in the presence of chemical substance/The level of expressed mRNA in the absence of chemical substance (yeast gene YMR322C, cultured two hours with substance): 21.3 | The level of expressed mRNA in the presence of chemical substance/The level of expressed mRNA in the absence of chemical substance (yeast gene YNL044W, cultured two hours with substance): 0.8 | The level of expressed mRNA in the presence of chemical substance/The level of expressed mRNA in the absence of chemical substance (yeast gene YNL074C, cultured two hours with substance): 1.5 | The level of expressed mRNA in the presence of chemical substance/The level of expressed mRNA in the absence of chemical substance (yeast gene YNL092W, cultured two hours with substance): 2.3 | The level of expressed mRNA in the presence of chemical substance/The level of expressed mRNA in the absence of chemical substance (yeast gene YNL115C, cultured two hours with substance): 2.6 | The level of expressed mRNA in the presence of chemical substance/The level of expressed mRNA in the absence of chemical substance (yeast gene YNL117W, cultured two hours with the chemical substance): 12.8 | The level of expressed mRNA in the presence of chemical substance/The level of expressed mRNA in the absence of chemical substance (yeast gene YNL156C, cultured two hours with substance): 2.4 | The level of expressed mRNA in the presence of chemical substance/The level of expressed mRNA in the absence of chemical substance (yeast gene YNL190W, cultured two hours with substance): 1.1 | The level of expressed mRNA in the presence of chemical substance/The level of expressed mRNA in the absence of chemical substance (yeast gene YNL208W, cultured two hours with substance): 2.3 | The level of expressed mRNA in the presence of chemical substance/The level of expressed mRNA in the absence of chemical substance (yeast gene YNL234W, cultured two hours with substance): 2.6 | The level of expressed mRNA in the presence of chemical substance/The level of expressed mRNA in the absence of chemical substance (yeast gene YNL281W, cultured two hours with substance): 2.8 | The level of expressed mRNA in the presence of chemical substance/The level of expressed mRNA in the absence of chemical substance (yeast gene YNL305C, cultured two hours with substance): 2.9 | The level of expressed mRNA in the presence of chemical substance/The level of expressed mRNA in the absence of chemical substance (yeast gene YNL331C): 42.6 | The level of expressed mRNA in the presence of chemical substance/The level of expressed mRNA in the absence of chemical substance (yeast gene YNL331C, cultured for two hours with substance): 42.6 | The level of expressed mRNA in the presence of chemical substance/The level of expressed mRNA in the absence of chemical substance (yeast gene YNR068C, cultured two hours with substance): 6.7 | The level of expressed mRNA in the presence of chemical substance/The level of expressed mRNA in the absence of chemical substance (yeast gene YOL030W, cultured two hours with the chemical substance): 1.2 | The level of expressed mRNA in the presence of chemical substance/The level of expressed mRNA in the absence of chemical substance (yeast gene YOL032W, cultured two hours with substance): 4.5 | The level of expressed mRNA in the presence of chemical substance/The level of expressed mRNA in the absence of chemical substance (yeast gene YOL036W, cultured two hours with substance): 3.1 | The level of expressed mRNA in the presence of chemical substance/The level of expressed mRNA in the absence of chemical substance (yeast gene YOL047C, cultured two hours with substance): 0.6 | The level of expressed mRNA in the presence of chemical substance/The level of expressed mRNA in the absence of chemical substance (yeast gene YOL071W, cultured two hours with substance): 4.4 | The level of expressed mRNA in the presence of chemical substance/The level of expressed mRNA in the absence of chemical substance (yeast gene YOL082W, cultured two hours with substance): 3.4 | The level of expressed mRNA in the presence of chemical substance/The level of expressed mRNA in the absence of chemical substance (yeast gene YOL083W, cultured two hours with substance): 2.7 | The level of expressed mRNA in the presence of chemical substance/The level of expressed mRNA in the absence of chemical substance (yeast gene YOL117W, cultured two hours with substance): 1.3 | The level of expressed mRNA in the presence of chemical substance/The level of expressed mRNA in the absence of chemical substance (yeast gene YOL131W, cultured two hours with substance): 8.4 | The level of expressed mRNA in the presence of chemical substance/The level of expressed mRNA in the absence of chemical substance (yeast gene YOL150C, cultured two hours with substance): 10.8 | The level of expressed mRNA in the presence of chemical substance/The level of expressed mRNA in the absence of chemical substance (yeast gene YOL162W, cultured two hours with substance): 12.0 | The level of expressed mRNA in the presence of chemical substance/The level of expressed mRNA in the absence of chemical substance (yeast gene YOL165C): 46.9 | The level of expressed mRNA in the presence of chemical substance/The level of expressed mRNA in the absence of chemical substance (yeast gene YOL165C, cultured for two hours with substance): 46.9 | The level of expressed mRNA in the presence of chemical substance/The level of expressed mRNA in the absence of chemical substance (yeast gene YOR019W, cultured two hours with substance): 3.5 | The level of expressed mRNA in the presence of chemical substance/The level of expressed mRNA in the absence of chemical substance (yeast gene YOR197W, cultured two hours with substance): 0.8 | The level of expressed mRNA in the presence of chemical substance/The level of expressed mRNA in the absence of chemical substance (yeast gene YOR215C, cultured two hours with substance): 2.1 | The level of expressed mRNA in the presence of chemical substance/The level of expressed mRNA in the absence of chemical substance (yeast gene YOR228C, cultured two hours with substance): 1.4 | The level of expressed mRNA in the presence of chemical substance/The level of expressed mRNA in the absence of chemical substance (yeast gene YOR248W, cultured two hours with substance): 0.1 | The level of expressed mRNA in the presence of chemical substance/The level of expressed mRNA in the absence of chemical substance (yeast gene YOR382W, cultured two hours with substance): 1.1 | The level of expressed mRNA in the presence of chemical substance/The level of expressed mRNA in the absence of chemical substance (yeast gene YOR391C, cultured two hours with substance): 18.8 | The level of expressed mRNA in the presence of chemical substance/The level of expressed mRNA in the absence of chemical substance (yeast gene YPL052W, cultured two hours with substance): 2.0 | The level of expressed mRNA in the presence of chemical substance/The level of expressed mRNA in the absence of chemical substance (yeast gene YPL087W, cultured two hours with substance): 1.0 | The level of expressed mRNA in the presence of chemical substance/The level of expressed mRNA in the absence of chemical substance (yeast gene YPL194W, DNA repair protein genes, cultured two hours with substance): 9.6 | The level of expressed mRNA in the presence of chemical substance/The level of expressed mRNA in the absence of chemical substance (yeast gene YPL196W, cultured two hours with substance): 10.9 | The level of expressed mRNA in the presence of chemical substance/The level of expressed mRNA in the absence of chemical substance (yeast gene YPL206C, cultured two hours with substance): 1.7 | The level of expressed mRNA in the presence of chemical substance/The level of expressed mRNA in the absence of chemical substance (yeast gene YPL222W, cultured two hours with substance): 7.4 | The level of expressed mRNA in the presence of chemical substance/The level of expressed mRNA in the absence of chemical substance (yeast gene YPL223C (stress protein genes)): 29.4 | The level of expressed mRNA in the presence of chemical substance/The level of expressed mRNA in the absence of chemical substance (yeast gene YPL272C, cultured two hours with the chemical substance): 1.2 | The level of expressed mRNA in the presence of chemical substance/The level of expressed mRNA in the absence of chemical substance (yeast gene YPL280W, cultured two hours with substance): 49.8 | The level of expressed mRNA in the presence of chemical substance/The level of expressed mRNA in the absence of chemical substance (yeast gene YPR023C, cultured two hours with substance): 4.4 | The level of expressed mRNA in the presence of chemical substance/The level of expressed mRNA in the absence of chemical substance (yeast gene YPR079W, cultured two hours with substance): 1.7 | The level of expressed mRNA in the presence of chemical substance/The level of expressed mRNA in the absence of chemical substance (yeast gene YPR150W, cultured two hours with the chemical substance): 1.2 | The level of expressed mRNA in the presence of chemical substance/The level of expressed mRNA in the absence of chemical substance (yeast gene YPR151C, cultured two hours with substance): 3.0 | The level of expressed mRNA in the presence of chemical substance/The level of expressed mRNA in the absence of chemical substance (yeast gene YPR167C): 76.6
